Entries after “also recorded” stand apart in the source; their conditions may differ. Bridge positions count the residues as written; N and C are the ends. Square brackets hold non-standard residues; d marks the D form. Peptide text beside a SMILES is read from it. * marks the point of attachment. ξ: configuration not given here. Hexanoyl(4ξ-Me) = CCC(C)CCC(=O)*; dOrn = NCCC[C@@H](N)C(=O)O; Orn = NCCC[C@H](N)C(=O)O
Assays:
E. coli PmrA^G53E = assay type: cell-based
Experimental: (§1) Bacterial strains and plasmids are listed in SI Table S5. LB growth media was prepared according to manufacturer’s instructions and supplemented with 0.2% arabinose and carbenicillin (50 μg/mL) for the strains containing pBAD24-mcr1 plasmid. Cultures were started by inoculating 3 ml LB with 1–2 colonies from fresh overnight plates and grown at 37 °C until in log phase. Modified minimal inhibitory concentration (MIC) assays were performed in 96-well round bottom polystyrene plates (Corning) with a final volume of 100 µl in LB supplemented with tween-80 at 0.0005%. […] Polymyxin B sulfate (TCI Co. Ltd), polymyxin B nonapeptide (PMBN) (Sigma), and brevicidine (Genentech) were diluted directly in the assay plates. Bacteria were diluted in LB with tween-80 0.0005% and added to a final OD600 of 0.0005. Growth was measured via OD600 on a SpectraMax M5 plate reader after overnight static growth at 37 °C with humidity.

E. coli mcr1 = assay type: cell-based; details: pBAD-mcr-1
Experimental: as §1

S. aureus WT = assay type: cell-based; details: LB + 0.0005% tween-80, overnight 37 °C
Experimental: as §1

E. coli WT+rifampicin = assay: Rifampicin potentiation / outer membrane permeability, wild-type E. coli; assay type: cell-based; details: rifampicin 1.56 µM; LB + 0.0005% tween-80, overnight 37 °C
Experimental: as §1

[1] = test system: E. coli PmrA^G53E+rifampicin; assay: Rifampicin potentiation / outer membrane permeability, E. coli PmrA^G53E; assay type: cell-based
Experimental: as §1

E. coli mcr-1+rifampicin = assay: Rifampicin potentiation / outer membrane permeability, E. coli mcr-1; assay type: cell-based
Experimental: as §1

wt-OMVs [2] = assay: Single-cycle kinetic SPR binding to immobilized wt-OMVs; design: species or system E. coli; details: serial doubling injections, C1 chip
Experimental: (§2) Polymyxin B was covalently attached to a C1 chip (Series S Sensor Chip C1, Cytiva) using an amine coupling kit (Cytiva). Cartoon in Fig. 1A created with BioRender (biorender.com). Briefly, equal amounts of reagents N-hydroxysuccinimide and 1-ethyl-3-(3-dimethylaminopropyl) carbodiimide hydrochloride were mixed as per manufacturer’s instructions and immediately added to the gold chip surface for 2 min, washed with distilled deionized water, and dried. Sufficient polymyxin B (1 mM in 1 M HEPES buffer, pH 8) was added to cover the chip surface, incubated at room temperature for 1 h, washed as before, and then incubated with 1 M ethanolamine hydrochloride-NaOH, pH 8.5, for 1 min. The chip surface was washed with water, dried as previously described, immediately loaded into a Biacore S200, and primed with running buffer (described below) to equilibrate the system. C1 chips were used for multiple runs and discarded upon removal from the Biacore S200.
(§3) SCK C1-chip SPR experiments were performed in running buffer (Dulbecco’s phosphate-buffered salt solution 1x without calcium or magnesium (Fisher Scientific), pH 7.4, with 0.0005% tween-80 (Sigma) passed through a 0.2 µm filter) unless otherwise indicated. Inclusion of tween-80 prevented loss of polymyxin to the plastics[34] (also see Supplementary Information Methods). For experiments with brevicidine, which was suspended in DMSO, 0.125% DMSO was included in the running buffer. OMVs were diluted from frozen stocks to approximately 20–30 µg/ml protein in the OMV buffer. Capture of OMVs was performed at a low flow rate ([…]) for 300 s over the test channel(s) followed by a 300 s stabilization period. All subsequent steps were at a flow rate of […]. For single cycle kinetics, two-fold dilutions were injected over the channel(s) loaded with OMVs and a reference channel without OMVs for 30 s contact and 480 s dissociation. To regenerate chips, 0.5% SDS (desorb 1, Cytiva) was injected into all channels for 60 s at 30 µl/ml twice, with an extra buffer wash and four carry-over control steps to prevent residual SDS from disrupting the following cycle.
All single-cycle kinetic SPR traces shown were double-referenced (unless indicated) within the Biacore S200 Evaluation Software 1.0, exported as a.txt file, and imported (decimated) into GraphPad Prism (version 9.3.1 for Mac, GraphPad Software, San Diego, CA). For clarity, in some cases individual outlier data points (at buffer transitions) were removed when this would not change the overall data or conclusions.

[3] = test system: resistant-OMVs (E. coli PmrA^G53E); assay: Single-cycle kinetic SPR binding to immobilized resistant-OMVs; details: serial doubling injections, C1 chip
Experimental: as §2
as §3, with “To regenerate chips, 0.5% SDS (desorb 1, Cytiva) was injected into all channels for 60 s at 30 µl/ml twice, with an extra buffer wash and four carry-over control steps to prevent residual SDS from disrupting the following cycle.” left out

wt-OMVs [4] = assay: SPR chaser analysis (residence time), wt-OMVs; assay type: binding, E. coli; details: 25 °C, n≥3, (SD)
Experimental: (§4) The off-rate of the tightly bound fraction was estimated using a chaser analysis, where OMVs were pre-saturated with polymyxin B and then re-saturated after an extended time interval (Supplementary Information Fig. S11A). […] A t1/2 of >6 h was determined for polymyxin B binding to OMVs at both 25 and 37 °C (SI Table S3). The t1/2 of brevicidine, also measured by chaser analysis, was approximately 1 h on both wt-OMVs and polymyxin-resistant-OMVs (SI Table S3).
(§5) Binding and kinetic analysis of SPR-OMV assays […]
To determine the residence time of the test compound with OMVs, the ‘chaser method’ was used because it accounts for drift that can occur in the system over long incubation times 13. OMVs were loaded onto the chip as described above then 5 µM polymyxin B was injected using the ‘low-sample consumption’ setting for 300 sec ([…] flow rate), followed by a 240 sec dissociation time. A second dose of 5 µM polymyxin B was then injected for 60 sec ([…]) to assure saturation followed by a 2 h dissociation time prior to the ‘chaser’, a 60 sec pulse of 5 µM polymyxin B. The RUs of associated polymyxin B were determined 120 sec after the start of the dissociation. The change in RUs from before dosing to after the second dose, and the change in RUs from prior to the ‘chaser’ dose and 120 sec after the start of its dissociation were used to calculate the fraction occupancy of the material and the residence time/half-life as described 13. […]
PMBN) to LPS for 20 min. […]
20 sec with a Solarus plasma cleaner (Gatan). Grids were blotted and plunge-frozen by Vitrobot (ThermoFisher Scientific, Waltham, MA) at 4°C, 100% relative humidity, blot force 7, and a 3 sec […]
TEM data collection was performed using a Titan Krios G3i (ThermoFisher Scientific, Waltham, MA) operating at 300 kV equipped with a BioQuantum energy filter and a K3 Summit direct electron detector operating at a nominal magnification of 105,000x (0.838 Å/pixel), an energy slit width of 20 eV, defocus range -1 to -3 μm, 3-sec exposure time, 60 frames per movie, a total electron fluence of ~64 e/Å2. Microscope and camera automation was accomplished by SerialEM14, and image processing (motion correction & CTF estimation) was performed using […]
(§6) Standard cryo-EM image processing software and methods were incompatible with the vesicle images, so a blinded visual scoring method for image analysis was used. Approximately 50 images from each sample and treatment condition that each contained at least one OMV (pooled in a single folder and blinded) were scored for number of vesicles touching (0-10+), and if the vesicle membranes appeared disrupted or abnormal. Sampling was not completely random as images of vesicles could not be obtained from areas with significant clumping. Images shown in […]

resistant-OMVs = assay: SPR chaser analysis (residence time), resistant-OMVs; assay type: binding, E. coli
Experimental: as §4, §5
To determine the residence time of the test compound with OMVs, the ‘chaser method’ was used because it accounts for drift that can occur in the system over long incubation times 13. […] A second dose of 5 µM polymyxin B was then injected for 60 sec ([…]) to assure saturation followed by a 2 h dissociation time prior to the ‘chaser’, a 60 sec pulse of 5 µM polymyxin B. The RUs of associated polymyxin B were determined 120 sec after the start of the dissociation. […]
as §6, with “abnormal.” for “abnormal. Sampling was not completely random as images of vesicles could not be obtained from areas with significant clumping. Images shown in”

Molecule	antibacterial activity (E. coli PmrA^G53E)	antibacterial activity (E. coli mcr1)	MIC (S. aureus WT)	MIC in presence of rifampicin (E. coli WT+rifampicin)	MIC in presence of rifampicin [1]	MIC in presence of rifampicin (E. coli mcr-1+rifampicin)	SPR binding profile (wt-OMVs [2])	SPR binding profile [3]	t1/2 (wt-OMVs [4])	t1/2 (resistant-OMVs; 25 °C, OMVs from PmrA^G53E and pmcr1 strains (n=2 each), (SD))	t1/2 of bound complex (resistant-OMVs; polymyxin-resistant-OMVs)
CCC(C)CCC(=O)N[C@H](CC(N)=O)C(=O)N[C@H](Cc1ccc(O)cc1)C(=O)N[C@H](Cc1c[nH]c2ccccc12)C(=O)N[C@H](CCCN)C(=O)N[C@@H](CCCN)C(=O)NCC(=O)N[C@H](CCCN)C(=O)N[C@@H](Cc1c[nH]c2ccccc12)C(=O)N[C@@H]1C(=O)N[C@@H]([C@@H](C)CC)C(=O)NCC(=O)N[C@@H](CO)C(=O)O[C@@H]1C (stereo partly drawn) [Brevicidine] ({Hexanoyl(4ξ-Me)}-[dN][dY][dW][dOrn][Orn]G[dOrn]WTIGS; ester 9-C; N-terminus assumed)	exhibits antibacterial activity against strains with polymyxin-resistant lipid A modifications	exhibits antibacterial activity against strains with polymyxin-resistant lipid A modifications	> 40 µM	0.078 µM	0.078 µM	0.078 µM	accumulation of a tightly bound species and a superimposed saw-tooth profile	indistinguishable from its binding to wt-OMVs; also recorded: identical response to wt-OMVs and resistant-OMVs	1.09 (0.20) h	1.17 (0.57) h	approximately 1 h
Colistin	–	–	–	–	–	–	dominated by the accumulation of tightly bound polymyxin B and a superimposed saw-tooth profile associated with transient binding	–	–	–	–

Reference: article PMC11148078, “Potent activity of polymyxin B is associated with long-lived super-stoichiometric accumulation mediated by weak-affinity binding to lipid A” (Nature Communications, 2024)
